According to article PMC8377175, “Antidiabetic effect of bio-enhanced preparation of turmeric in streptozotocin-nicotinamide induced type 2 diabetic Wistar rats” (Journal of Ayurveda and Integrative Medicine, 2021):
Marks after values point to notes of the source that are not given here.

Legend:
Body weight measurement = format: in vivo, Wistar rats; conditions: for Body weight, Day 1: Day 1 of treatment (baseline), in g (unit assumed); for Body weight, Day 1 / Body weight, Day 30: mean ± SD; for Percentage change in body weight on Day 30 when compared to baseline, Gain (+)/Loss (−) / Body weight, Day 30: 30 days
Method: (§1) Wistar rats were divided into seven groups, each group had six rats. Treatment for all the groups was started on the 4th day after diabetes induction procedure. The same was considered as Day 1 for treatment and continued for 30 days. The animals were treated for 30 days. The treatment schedule of various groups were as follows: Normal control (NC) (1 mL of 1% Tween 80, per oral), Diabetic control (DC) (1 mL of 1% Tween 80, per oral), two Standard control groups were treated with GLIB (5 mg/kg, per oral) and MET (500 mg/kg, per oral), two test groups were treated with bio-BTE (30 mg/kg, per oral and 60 mg/kg, per oral) and one test group was treated with RTE (30 mg/kg, per oral). The vehicle used for the study in all the groups were 1% Tween 80. Oral feeding of drugs was done using steel oral gavage tube (16 G, 7.6 cm). During the treatment period, rats also received standard pelleted chow (VRK Nutritional solutions) and water ad libitum during treatment.
Body weight of the rats was measured before induction (on the day of induction), on Day 1 of treatment and also on Day 30 of treatment. Percentage change in body weight was calculated using the formula (BodyweightonDay30oftreatment−BodyweightonDay1oftreatment)/(BodyweightonDay1oftreatment)×100

[1] = system: streptozotocin-nicotinamide induced type 2 diabetic Wistar rats; experiment: Fasting blood glucose and oral glucose tolerance test in STZ-NA diabetic rats; format: in vivo; conditions: mean ± SD; for OG1 (OGTT 60 min), Day 29 Readings (after treatment) / OG2 (OGTT 120 min), Day 29 Readings (after treatment) / OG1 (OGTT 60 min), Day 1 Readings (baseline) / OG2 (OGTT 120 min), Day 1 Readings (baseline): glucose 2 g/kg; for OG1 (OGTT 60 min), Day 29 Readings (after treatment) / OG2 (OGTT 120 min), Day 29 Readings (after treatment) / FBG, Day 29 Readings (after treatment) / FBG, Day 1 Readings (baseline) / OG1 (OGTT 60 min), Day 1 Readings (baseline) / OG2 (OGTT 120 min), Day 1 Readings (baseline): n = 6; for FBG, Day 1 Readings (baseline): Day 1 baseline (4th day after induction); for OG1 (OGTT 60 min), Day 1 Readings (baseline) / OG2 (OGTT 120 min), Day 1 Readings (baseline): Day 1 baseline; for Day 30 FBG: 30 days
Method: This study was done at the Department of Pharmacology, Kasturba Medical College, […] Academy of Higher Education, […]. The diabetic model that we have used in this study was STZ-NA model. DM was induced in male Wistar rats by giving NA and STZ injections, intraperitoneally. […] Citrate buffer (0.1 M), which has been used as solvent for mixing STZ, was made by dissolving solution of trisodium citrate (294.10 mg in 100 mL of distilled water) with citric acid solution (210.10 mg in 100 mL of distilled water) to attain pH 4.5. Ice was kept around the glass beaker containing Citrate buffer to maintain citrate buffer at lower temperatures. Normal control rats were administered with Citrate buffer alone intraperitoneally. […] Wistar rats were divided into seven groups, each group had six rats. Treatment for all the groups was started on the 4th day after diabetes induction procedure. The same was considered as Day 1 for treatment and continued for 30 days. The animals were treated for 30 days. The treatment schedule of various groups were as follows: Normal control (NC) (1 mL of 1% Tween 80, per oral), Diabetic control (DC) (1 mL of 1% Tween 80, per oral), two Standard control groups were treated with GLIB (5 mg/kg, per oral) and MET (500 mg/kg, per oral), two test groups were treated with bio-BTE (30 mg/kg, per oral and 60 mg/kg, per oral) and one test group was treated with RTE (30 mg/kg, per oral). The vehicle used for the study in all the groups were 1% Tween 80. Oral feeding of drugs was done using steel oral gavage tube (16 G, 7.6 cm). During the treatment period, rats also received standard pelleted chow (VRK Nutritional solutions) and water ad libitum during treatment. […] FBG, OG1 and OG2 values were estimated from blood drops that were obtained from rat tail tip using Accu-Check Glucometer. […] These serum samples were stored at -80 °C before insulin levels were assayed using DRG Rat insulin ELISA Kit.

[2] = system: streptozotocin-nicotinamide induced type 2 diabetic Wistar rats; experiment: Fasting serum insulin (DRG Rat insulin ELISA Kit) in STZ-NA diabetic rats; format: in vivo; conditions: 30 days, mean ± SD
Method: as §1, with “During the treatment period, rats also received standard pelleted chow (VRK Nutritional solutions) and water ad libitum during treatment.” left out
FBG was estimated in all rats before administration of STZ and NA and had FBG level less than 126 mg/dl. […] FBG values were measured at 0 min (before glucose administration) and OGTT readings (OG1 and OG2) were measured at 60 and 120 min after administration of glucose solution. […] On Day 30 of treatment, FBG was measured and after anaesthetizing rats with ether, blood was collected from overnight fasted rats using cardiac puncture into red-coloured procoagulant vacutainers and centrifuged at 3000 rpm for 7 min to obtain serum. […]

[3] = system: streptozotocin-nicotinamide induced type 2 diabetic Wistar rats; experiment: HOMA2 calculator: insulin resistance, insulin sensitivity, beta-cell function, and their correlation with serum insulin; format: in vivo; conditions: 30 days, mean ± SD
Method: FBG, OG1 and OG2 values were estimated from blood drops that were obtained from rat tail tip using Accu-Check Glucometer. […] These serum samples were stored at −80 °C before insulin levels were assayed using DRG Rat insulin ELISA Kit. […] One-way ANOVA followed by post hoc analysis with Tukey test was conducted to evaluate statistically significant differences in the study variables between treatment groups. Pearson two-tailed correlation analysis was used to evaluate the correlation between serum insulin and IR; serum insulin and %B; and serum insulin & %S. SPSS version 21.0 was used to conduct statistical analysis in this study.

COc1ccc(Cl)cc1C(=O)NCCc1ccc(S(=O)(=O)NC(=O)NC2CCCCC2)cc1 [GLIB, Glibenclamide]
Body weight, Day 1 (Body weight measurement; GLIB 5 mg/kg per oral group): 179.67 ± 3.08
Percentage change in body weight on Day 30 when compared to baseline, Gain (+)/Loss (−) (Body weight measurement; GLIB 5 mg/kg per oral): +23%
Body weight, Day 30 (Body weight measurement; GLIB 5 mg/kg per oral): 221 ± 8.07^abcd
OG1 (OGTT 60 min), Day 29 Readings (after treatment) ([1]; GLIB 5 mg/kg per oral daily): 154.17 ± 76.55^b mg/dL
OG2 (OGTT 120 min), Day 29 Readings (after treatment) ([1]; GLIB 5 mg/kg per oral daily): 117.50 ± 16.21^b mg/dL
FBG, Day 29 Readings (after treatment) ([1]; GLIB 5 mg/kg per oral daily): 95.17 ± 27.97^b mg/dL
FBG, Day 1 Readings (baseline) ([1]; GLIB 5 mg/kg per oral group): 130.5 ± 5.43^a mg/dL
OG1 (OGTT 60 min), Day 1 Readings (baseline) ([1]; GLIB 5 mg/kg per oral group): 420.67 ± 21.71^a mg/dL
OG2 (OGTT 120 min), Day 1 Readings (baseline) ([1]; GLIB 5 mg/kg per oral group): 358.50 ± 34.65^a mg/dL
Day 30 FBG ([1]; GLIB 5 mg/kg per oral): 96.67 ± 26.49^b mg/dL
Day 30 Serum Insulin ([2]; GLIB 5 mg/kg per oral): 145.68 ± 41.06^abd pmol/L
Day 30 Beta cell function (%B) ([3]; GLIB 5 mg/kg per oral): 183.13 ± 68.69^b %
Day 30 Insulin Resistance (IR) ([3]; GLIB 5 mg/kg per oral): 2.70 ± 0.84^abd
Day 30 Insulin Sensitivity (%S) ([3]; GLIB 5 mg/kg per oral): 41.08 ± 16.03%

CN(C)C(=N)N=C(N)N [MET, Metformin]
Body weight, Day 1 (Body weight measurement; MET 500 mg/kg per oral group): 183.67 ± 7.82
Percentage change in body weight on Day 30 when compared to baseline, Gain (+)/Loss (−) (Body weight measurement; MET 500 mg/kg per oral): −12.07%
Body weight, Day 30 (Body weight measurement; MET 500 mg/kg per oral): 161.5 ± 7.74^acd
OG1 (OGTT 60 min), Day 29 Readings (after treatment) ([1]; MET 500 mg/kg per oral daily): 329.33 ± 12.91^abd mg/dL
OG2 (OGTT 120 min), Day 29 Readings (after treatment) ([1]; MET 500 mg/kg per oral daily): 203.67 ± 58.96^b mg/dL
FBG, Day 29 Readings (after treatment) ([1]; MET 500 mg/kg per oral daily): 144.83 ± 53.86^b mg/dL
FBG, Day 1 Readings (baseline) ([1]; MET 500 mg/kg per oral group): 128.33 ± 5.32^a mg/dL
OG1 (OGTT 60 min), Day 1 Readings (baseline) ([1]; MET 500 mg/kg per oral group): 421.67 ± 39.52^a mg/dL
OG2 (OGTT 120 min), Day 1 Readings (baseline) ([1]; MET 500 mg/kg per oral group): 301.50 ± 64.05^a mg/dL
Day 30 FBG ([1]; MET 500 mg/kg per oral): 141.00 ± 52.33^abcd mg/dL
Day 30 Serum Insulin ([2]; MET 500 mg/kg per oral): 35.63 ± 16.81^c pmol/L
Day 30 Beta cell function (%B) ([3]; MET 500 mg/kg per oral): 42.03 ± 37.09^acd %
Day 30 Insulin Resistance (IR) ([3]; MET 500 mg/kg per oral): 0.73 ± 0.31^bc
Day 30 Insulin Sensitivity (%S) ([3]; MET 500 mg/kg per oral): 160.70 ± 68.64^abcd %
